Series [1] addresses T1, Dengue polymerase (Dengue virus type 2, UniProt P29990). Kind of series: biochemical. The following applies: De novo.
The target of series [2] is T1, Dengue polymerase. Kind of series: biochemical. Particulars: Elongation.
Another series addresses HCV polymerase (Hepatitis C virus genotype 1b, UniProt Q9WMX2). Kind of series: biochemical.
The nature of series [3]: 4 day CCK-8 cytotoxicity assay using THP-1 cells. The following applies: human, read-out: Dengue CC50 (THP-1). The format is cell-based. The procedure:
3) Protocols for Automated 4 Days CCK8 (Dojindo) Cytotoxicity Assay in HepG2 and THP-1 Cells • 1. 25 μL of HepG2 suspension containing 1.6×10^4 cells/ml (400 cells/well) or 25 μL of THP-1 suspension containing 8×10^4 cells/ml (2000 cells/well) was dispensed into a clear 384-well plate by GNF dispenser 2B vertical-head. • 2. The plate was pre-incubated for 24 h in the GNF incubator (humidified, 37° C., 5% CO2). • 3. Serial-diluted compound were directly transferred into the culture media in the plate (200× dilution). • 4. Plates were incubated for 96 hours in the GNF incubator. • 5. CCK-8 was thawed on the bench-top, and was pre-diluted with media (2.5× dilutions). • 6. 35 μL of 2.5× diluted CCK8 was added to each well of the plate by GNF dispenser 1C angled-head. • 7. The plates were incubated for 3 hours in the incubator. • 8. The absorbance at 450 nm was measured by Envision. Dengue Assay on Cryopreserved PBMC Cells
THP-1 cells grown in suspension were counted and diluted to 8×10^4 cells/ml in RPMI-1640 media supplemented with 10% fetal bovine serum and 1% penicillin/streptomycin. 25 ul of the THP-1 containing media consisting of 2000 cells were dispensed in 384-well tissue culture plate and pre-incubated at room temperature for 30 minutes, followed by 37° C., 5% CO2 overnight in the humidified incubator. On the next day, serial-diluted compound plates were prepared and 125 nl of compounds at various concentrations were then dispensed into the tissue culture well (200× dilution). The plates were then transferred to 37° C., 5% CO2 humidified incubator for additional 96 hours. Cytotoxicity was measured by CCK-8 assay. Briefly, CCK-8 was thawed on bench top and diluted 2.5× with the growth media. 35 ul of the pre-diluted CCK-8 was then introduced into each well and the plates were then further incubated in 37° C., 5% CO2 humidified incubator for 3 hours. The absorbance was read by Envision at 450 nm. Dose response curves were plotted from the mean absorbance (n=2) versus the log of the concentration of test compounds. The EC50 is calculated by nonlinear regression analysis. A positive control (puromycin) was used to ensure the quality of the data.

The subject of a further series is Dengue virus. Kind of series: Dengue assay on cryopreserved PBMC cells (plaque reduction readout on BHK cells). The following applies: human PBMC cells. The format is cell-based. Here is the method: Cryopreserved human PBMC cells were purchased from approved vendors. It was then thawed according to manufacturer's instructions and suspended in RPMI medium supplemented with 1% penicillin/streptomycin solution and 10% Fetal Calf serum. The cells were then counted and viability checked (viability should be at least 70%). After centrifuging and removing the media, the cells were diluted to 1×10^7 cells/mL in RPMI medium supplemented with 1% penicillin/streptomycin. 50 μl of the cells were then dispensed into 96-well tissue culture plate constituting 5×10^5 cells/well. Next, virus with humanized 4G2 mixture was prepared for infection. Briefly, virus (2×10^7 pfu/ml) was mixed with humanized 4G2 antibody with the final antibody concentration of 0.38 μg/ml and incubated for 30 minutes at 4° C. to assist virus/antibody complex formation. The virus-antibody complex was then added to the PBMC at multiplicity of infection (M.O.I) of 0.5. The resulting media was then and further incubated the plates at 37° C. in the humidified incubator for infection to take place. Serial diluted compounds were then added and finally media was added such that the final media volume was 200 μl with 2% Fetal Calf Serum. The plates were then incubated at 37° C., 5% CO2 for another 48 hours. The extent of the infection and compound inhibition was measured by plaque reduction assay using BHK cells. Briefly, BHK cells grown in 24-well tissue culture were subjected to supernatants derived from infection containing serial diluted compounds. After additional 4 days, the monolayer of BHK cells were fixed, stained with crystal violet stain and plaques counted. Dose response curves were plotted from the mean absorbance (n=3) versus the log of the concentration of test compounds. The EC50 is calculated by nonlinear regression analysis. A positive control (7-deaza-2′-C-acetylene-adenosine) was used to ensure the quality of the data.

In series [4] the test system is GT1b HCV luciferase replicon. Kind of series: HCV replicon antiviral EC50 assay. The format is cell-based, Hepatitis C virus. On the technique in general: Replicon systems follow genome replication, usually without infectious particles.
The next series in a line: in vitro. The following applies: HCV GT1b CC50 (uM).
Series [5] relates to Replicon cells, expressing the GT1b HCV luciferase replicon.
Where [6] appears, read: Hepatitis C virus, GT1B, 72 h, read-out: HCV GT1b EC50 (uM).

Like-named read-outs stand apart in the source and are kept apart here. Bounds are passed on as bounds.

T1 sequence (P29990 2492-3391 limits assumed): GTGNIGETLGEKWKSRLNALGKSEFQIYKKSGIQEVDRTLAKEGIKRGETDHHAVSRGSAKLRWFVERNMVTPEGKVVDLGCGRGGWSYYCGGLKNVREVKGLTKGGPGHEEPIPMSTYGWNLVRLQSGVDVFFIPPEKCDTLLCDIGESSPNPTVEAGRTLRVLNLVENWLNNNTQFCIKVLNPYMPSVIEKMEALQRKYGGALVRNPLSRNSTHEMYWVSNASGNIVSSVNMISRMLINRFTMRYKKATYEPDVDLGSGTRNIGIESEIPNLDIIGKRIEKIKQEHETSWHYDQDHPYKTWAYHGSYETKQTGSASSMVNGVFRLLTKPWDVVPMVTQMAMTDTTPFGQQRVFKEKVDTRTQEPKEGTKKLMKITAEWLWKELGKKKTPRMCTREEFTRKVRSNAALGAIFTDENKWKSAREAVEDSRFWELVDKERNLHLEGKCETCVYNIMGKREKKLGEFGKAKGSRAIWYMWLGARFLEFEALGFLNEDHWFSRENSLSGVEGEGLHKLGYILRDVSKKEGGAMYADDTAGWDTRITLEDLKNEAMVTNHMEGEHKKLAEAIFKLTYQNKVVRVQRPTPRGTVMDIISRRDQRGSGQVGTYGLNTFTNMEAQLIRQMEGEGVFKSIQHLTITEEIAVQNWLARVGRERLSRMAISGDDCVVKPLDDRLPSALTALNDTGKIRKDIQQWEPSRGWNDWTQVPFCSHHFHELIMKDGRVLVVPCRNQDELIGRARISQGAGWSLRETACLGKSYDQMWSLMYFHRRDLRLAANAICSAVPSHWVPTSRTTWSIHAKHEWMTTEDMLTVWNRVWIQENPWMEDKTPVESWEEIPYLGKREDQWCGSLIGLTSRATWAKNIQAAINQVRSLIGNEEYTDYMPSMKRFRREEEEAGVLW
Sequence of HCV polymerase (Q9WMX2 2420-3010 limits assumed): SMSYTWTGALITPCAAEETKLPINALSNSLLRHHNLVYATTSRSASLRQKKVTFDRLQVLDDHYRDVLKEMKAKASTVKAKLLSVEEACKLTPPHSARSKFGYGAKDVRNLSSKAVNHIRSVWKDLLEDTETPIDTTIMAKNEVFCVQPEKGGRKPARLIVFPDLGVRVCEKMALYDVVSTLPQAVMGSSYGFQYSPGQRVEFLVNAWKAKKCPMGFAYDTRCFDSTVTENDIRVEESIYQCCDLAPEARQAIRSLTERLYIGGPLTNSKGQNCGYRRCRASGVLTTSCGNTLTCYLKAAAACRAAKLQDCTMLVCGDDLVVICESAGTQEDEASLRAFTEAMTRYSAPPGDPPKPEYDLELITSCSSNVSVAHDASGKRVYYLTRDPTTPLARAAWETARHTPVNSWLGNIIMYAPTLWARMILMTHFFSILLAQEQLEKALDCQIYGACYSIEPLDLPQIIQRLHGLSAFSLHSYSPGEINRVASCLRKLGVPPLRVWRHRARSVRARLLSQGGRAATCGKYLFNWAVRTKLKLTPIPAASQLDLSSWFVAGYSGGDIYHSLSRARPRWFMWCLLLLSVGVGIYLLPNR

With `C#C[C@@]1(O)[C@H](O)[C@@H](COP(=O)(O)OP(=O)(O)OP(=O)(O)O)O[C@H]1n1ccc(=O)[nH]c1=O` [Example 1.8, ((2R,3R,4R,5R)-5-(2,4-dioxo-3,4-dihydropyrimidin-1(2H)-yl)-4-ethynyl-3,4-dihydroxytetrahydrofuran-2-yl)methyl tetrahydrogen triphosphate], the IC50 (commonly the midpoint of a concentration-inhibition curve) against Dengue polymerase [1] was found to be 2900 nM; on Dengue polymerase [2] it was 1200 nM; on HCV polymerase, 8300 nM.
Turning to `CC#C[C@@]1(O)[C@H](O)[C@@H](COP(=O)(O)OP(=O)(O)OP(=O)(O)O)O[C@H]1n1ccc(=O)[nH]c1=O` [Example 1.9, ((2R,3R,4R,5R)-5-(2,4-dioxo-3,4-dihydropyrimidin-1(2H)-yl)-3,4-dihydroxy-4-(prop-1-yn-1-yl)tetrahydrofuran-2-yl)methyl tetrahydrogen triphosphate], the values for the IC50 against Dengue polymerase [1] and at Dengue polymerase [2] were 3400 nM and 2100 nM, respectively.
For the compound `C#C[C@@]1(O)[C@H](O)[C@@H](CO[P@@](=O)(N[C@@H](C)C(=O)OC(C)C)Oc2ccccc2)O[C@H]1n1ccc(=O)[nH]c1=O` (single isomer, unassigned) [Example 1], the CC50 at 96 h in series [3] was > 50000 nM. In addition, the half-maximal effective concentration (EC50) (as a rule, the concentration needed to bring the measured effect to its halfway point) turned out to be 400 nM in the series on Dengue virus (Dengue virus, PBMC, 48 h); 230 nM in the series on Dengue virus (48 hours); 0.066 µM in series [4] (setting [6]); 0.098 µM in series [4] (read-out: HCV GT1b EC50). The values for the CC50 (in “in vitro”; in series [5]) were > 25 µM and > 20000 nM, respectively.
`CC#C[C@@]1(O)[C@H](O)[C@@H](COP(=O)(N[C@@H](C)C(=O)OC(C)C)Oc2ccccc2)O[C@H]1n1ccc(=O)[nH]c1=O` (stereo partly drawn) [Example 1.1, (2S)-isopropyl 2-(((((2R,3R,4R,5R)-5-(2,4-dioxo-3,4-dihydropyrimidin-1(2H)-yl)-3,4-dihydroxy-4-(prop-1-yn-1-yl)tetrahydrofuran-2-yl)methoxy)(phenoxy)phosphoryl)amino)propanoate]: the CC50 at 96 h in series [3] came to 48000 nM. Besides, the EC50 with Dengue virus (Dengue virus, PBMC, 48 h) was 970 nM; in series [4] (setting [6]) it was 0.243 µM. The CC50 in “in vitro” was > 25 µM.
In the case of `C#C[C@@]1(O)[C@H](O)[C@@H](COP(=O)(N[C@@H](C)C(=O)OCc2ccccc2)Oc2ccc(Cl)cc2)O[C@H]1n1ccc(=O)[nH]c1=O` (stereo partly drawn) [Example 1.5, (2S)-benzyl 2-(((4-chlorophenoxy)(((2R,3R,4R,5R)-5-(2,4-dioxo-3,4-dihydropyrimidin-1(2H)-yl)-4-ethynyl-3,4-dihydroxytetrahydrofuran-2-yl)methoxy)phosphoryl)amino)propanoate], the CC50 at 96 h in series [3] stood at 8300 nM. In addition, the concentration for a half-maximal effect (EC50) is 60 nM in the series on Dengue virus (Dengue virus, PBMC, 48 h) and 0.131 µM in series [4] (setting [6]). The CC50 in the series “in vitro” is > 25 µM.
With `C#C[C@@]1(O)[C@H](O)[C@@H](COP(=O)(NCC(=O)OC(C)C)Oc2ccc(Cl)cc2)O[C@H]1n1ccc(=O)[nH]c1=O` (stereo partly drawn) [Example 1.6, isopropyl 2-(((4-chlorophenoxy)(((2R,3R,4R,5R)-5-(2,4-dioxo-3,4-dihydropyrimidin-1(2H)-yl)-4-ethynyl-3,4-dihydroxytetrahydrofuran-2-yl)methoxy)phosphoryl)amino)acetate], the CC50 at 96 h in series [3] is > 50000 nM. For the same compound, the EC50 came to 170 nM in the series on Dengue virus (Dengue virus, PBMC, 48 h) and 0.152 µM in series [4] (setting [6]). Besides, in the series “in vitro”, the CC50 is > 25 µM.

Values taken from US9814739B2, “2′-ethynyl nucleoside derivatives for treatment of viral infections” (priority 2012, dated 2017).
